The results in this text go back to patent publication US20240174671A1, “New 2,3-Dihydro-1H-pyrrolo[3,2-b]pyridine Derivatives as Sigma Ligands” (ACONDICIONAMIENTO TARRASENSE, priority 2021, published 2024).

Where only a bound is given, the exact number is not on record here.

One experiment addresses T1, human σ1 receptor (Homo sapiens, UniProt Q99720).
T1 construct: expressed in transfected cells; host or cells: HEK-293
As to the kind of experiment: Human σ1 receptor radioligand assay ([3H](+)-pentazocine). The experiment is classed as binding. The conditions noted are these: transfected HEK-293 membranes, 5 nM [3H](+)-pentazocine, 37° C., 120 minutes; read-out: Binding σ-[…] (binding to σ1-receptor expressed as Ki). A digest of the protocol: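 Binding used [3H](+)-pentazocine, 120 min at 37° C, with non-specific binding defined by 10 μM haloperidol. Bound radioligand was collected by filtration, washed with ice-cold 10 mM Tris-HCl pH 7.4 and counted by scintillation.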

A further experiment concerns the target T2, human σ2/TMEM97 receptor (Homo sapiens, UniProt Q5BJF2).
T2 construct: expressed in transfected cells; host or cells: HEK-293
As to the kind of experiment: Binding assay to human σ2/TMEM97 receptor ([3H]-DTG). The conditions noted are these: transfected HEK-293 membranes, 10 nM [3H]-DTG, 25° C., 120 minutes; read-out: Binding σ-[…] (binding to σ2-receptor expressed as Ki). The essentials: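 Membranes from transfected HEK-293 cells incubated with 10 nM [3H]-DTG in 50 mM Tris-HCl pH 8.0, 120 min at 25 °C; non-specific binding defined with 10 μM haloperidol. Bound radioactivity counted after filtration; compounds tested as % inhibition at 1 or 10 μM or at five concentrations for Ki.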

T1 sequence (Q99720 whole entry): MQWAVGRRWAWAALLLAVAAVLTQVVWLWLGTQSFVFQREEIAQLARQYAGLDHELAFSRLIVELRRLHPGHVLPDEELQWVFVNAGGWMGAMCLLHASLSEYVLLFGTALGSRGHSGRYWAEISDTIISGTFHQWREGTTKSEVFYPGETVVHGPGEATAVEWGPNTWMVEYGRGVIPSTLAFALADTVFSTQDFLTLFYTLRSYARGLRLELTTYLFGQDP
T2 sequence (Q5BJF2 whole entry): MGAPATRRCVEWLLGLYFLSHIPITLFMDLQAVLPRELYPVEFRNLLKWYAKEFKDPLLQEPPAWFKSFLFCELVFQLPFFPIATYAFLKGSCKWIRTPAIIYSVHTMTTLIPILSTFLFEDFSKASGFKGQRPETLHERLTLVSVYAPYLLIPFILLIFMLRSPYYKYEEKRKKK

With `Cc1ccc2c(n1)C(C)(C)CN2C(=O)C1CN(Cc2ccccc2)C1` [Example 131, (1-benzylazetidin-3-yl)(3,3,5-trimethyl-2,3-dihydro-1H-pyrrolo[3,2-b]pyridin-1-yl)methanone], the Ki was less than 100 nM at human σ1 receptor and more than 1000 nM at human σ2/TMEM97 receptor.

As for `CC1(C)CN(C(=O)C2CN(Cc3ccccc3)C2)c2cccnc21` [Example 132, (1-benzylazetidin-3-yl)(3,3-dimethyl-2,3-dihydro-1H-pyrrolo[3,2-b]pyridin-1-yl)methanone], the Ki at human σ1 receptor is less than 100 nM; at human σ2/TMEM97 receptor, 100 to 500 nM.

As for `Cc1ccc2c(n1)C(C)(C)CN2C(=O)C1CN(Cc2ccc(F)cc2)C1` [Example 133, (1-(4-fluorobenzyl)azetidin-3-yl)(3,3,5-trimethyl-2,3-dihydro-1H-pyrrolo[3,2-b]pyridin-1-yl)methanone], the results for the Ki on human σ1 receptor and on human σ2/TMEM97 receptor were less than 100 nM and more than 1000 nM, respectively.

Consider `Cc1ccc2c(n1)C(C)(C)CN2C(=O)[C@H]1C[C@H](NCc2ccccc2)C1` [Example 134, ((1r,3r)-3-(benzylamino)cyclobutyl)(3,3,5-trimethyl-2,3-dihydro-1H-pyrrolo[3,2-b]pyridin-1-yl)methanone], for which the Ki at human σ1 receptor was 100 to 500 nM; on human σ2/TMEM97 receptor, more than 1000 nM.

Regarding `Cc1ccc2c(n1)C(C)(C)CN2C(=O)C1CN(Cc2cccc(F)c2)C1` [Example 135, (1-(3-fluorobenzyl)azetidin-3-yl)(3,3,5-trimethyl-2,3-dihydro-1H-pyrrolo[3,2-b]pyridin-1-yl)methanone], the Ki on human σ1 receptor is less than 100 nM; on human σ2/TMEM97 receptor, 500 to 1000 nM.

Turning to `Cc1ccc2c(n1)C(C)(C)CN2C(=O)[C@H]1C[C@@H](NCc2ccccc2)C1` [Example 136, ((1s,3s)-3-(benzylamino)cyclobutyl)(3,3,5-trimethyl-2,3-dihydro-1H-pyrrolo[3,2-b]pyridin-1-yl)methanone], the Ki on human σ1 receptor and on human σ2/TMEM97 receptor was 100 to 500 nM each time.

Regarding `Cc1ccc2c(n1)C(C)(C)CN2C(=O)[C@H]1C[C@H](N(C)Cc2ccccc2)C1` [Example 137, ((1r,3r)-3-(Benzyl(methyl)amino)cyclobutyl)(3,3,5-trimethyl-2,3-dihydro-1H-pyrrolo[3,2-b]pyridin-1-yl)methanone], the Ki is less than 100 nM at human σ1 receptor and 100 to 500 nM at human σ2/TMEM97 receptor.

Take `CN(Cc1ccccc1)[C@H]1CC[C@H](C(=O)N2CC(C)(C)c3ncccc32)CC1` [Example 138, ((1r,4r)-4-(benzyl(methyl)amino)cyclohexyl)(3,3-dimethyl-2,3-dihydro-1H-pyrrolo[3,2-b]pyridin-1-yl)methanone]: the Ki on human σ1 receptor and at human σ2/TMEM97 receptor was less than 100 nM each time.

As for `Cc1ccc2c(n1)C(C)(C)CN2C(=O)[C@H]1C[C@@H](N(C)Cc2ccccc2)C1` [Example 139, ((1s,3s)-3-(benzyl(methyl)amino)cyclobutyl)(3,3,5-trimethyl-2,3-dihydro-1H-pyrrolo[3,2-b]pyridin-1-yl)methanone], the Ki at human σ1 receptor and on human σ2/TMEM97 receptor was 100 to 500 nM in each case.

For `Cc1ccc2c(n1)C(C)(C)CN2C(=O)[C@H]1CC[C@H](N(C)Cc2ccccc2)CC1` [Example 140, ((1r,4r)-4-(benzyl(methyl)amino)cyclohexyl)(3,3,5-trimethyl-2,3-dihydro-1H-pyrrolo[3,2-b]pyridin-1-yl)methanone], the Ki on human σ1 receptor and at human σ2/TMEM97 receptor was less than 100 nM throughout.

With `CC1(C)CN(C(=O)N2CCC3(CCN(Cc4ccccc4F)CC3)C2)c2cccnc21` [Example 141, (3,3-dimethyl-2,3-dihydro-1H-pyrrolo[3,2-b]pyridin-1-yl)(8-(2-fluorobenzyl)-2,8-diazaspiro[4.5]decan-2-yl)methanone], the Ki on human σ1 receptor and at human σ2/TMEM97 receptor was less than 100 nM throughout.

With `CC1(C)CN(C(=O)N2CCC3(CCN(Cc4ccc(C#N)c(F)c4)CC3)C2)c2cccnc21` [Example 142, 4-((2-(3,3-dimethyl-2,3-dihydro-1H-pyrrolo[3,2-b]pyridine-1-carbonyl)-2,8-diazaspiro[4.5]decan-8-yl)methyl)-2-fluorobenzonitrile], the Ki on human σ1 receptor and on human σ2/TMEM97 receptor was less than 100 nM each time.

Take `CC1(C)CN(C(=O)N2CCC3(CCN(Cc4ccc(F)c(C#N)c4)CC3)C2)c2cccnc21` [Example 143, 5-((2-(3,3-dimethyl-2,3-dihydro-1H-pyrrolo[3,2-b]pyridine-1-carbonyl)-2,8-diazaspiro[4.5]decan-8-yl)methyl)-2-fluorobenzonitrile]: the Ki on human σ1 receptor was 100 to 500 nM; on human σ2/TMEM97 receptor it was less than 100 nM.

As to `CC1(C)CN(C(=O)N2CCC3(CCN(CC4CCOCC4)CC3)C2)c2cccnc21` [Example 144, (3,3-dimethyl-2,3-dihydro-1H-pyrrolo[3,2-b]pyridin-1-yl)(8-((tetrahydro-2H-pyran-4-yl)methyl)-2,8-diazaspiro[4.5]decan-2-yl)methanone], the values for the Ki on human σ1 receptor and on human σ2/TMEM97 receptor were 100 to 500 nM and less than 100 nM, respectively.

For the compound `CC1(C)CN(C(=O)N2CCC3(CCN(Cc4ccccc4F)CC3)CC2)c2cccnc21` [Example 145, (3,3-dimethyl-2,3-dihydro-1H-pyrrolo[3,2-b]pyridin-1-yl)(9-(2-fluorobenzyl)-3,9-diazaspiro[5.5]undecan-3-yl)methanone], the Ki at human σ1 receptor and at human σ2/TMEM97 receptor was less than 100 nM each time.

Consider `CC1(C)CN(C(=O)N2CCC3(CCN(Cc4ccc(C#N)c(F)c4)CC3)CC2)c2cccnc21` [Example 146, 4-((9-(3,3-dimethyl-2,3-dihydro-1H-pyrrolo[3,2-b]pyridine-1-carbonyl)-3,9-diazaspiro[5.5]undecan-3-yl)methyl)-2-fluorobenzonitrile], for which the Ki on human σ1 receptor was less than 100 nM; at human σ2/TMEM97 receptor it was 100 to 500 nM.

With `CC1(C)CN(C(=O)N2CCC3(CCN(Cc4ccc(F)c(C#N)c4)CC3)CC2)c2cccnc21` [Example 147, 5-((9-(3,3-dimethyl-2,3-dihydro-1H-pyrrolo[3,2-b]pyridine-1-carbonyl)-3,9-diazaspiro[5.5]undecan-3-yl)methyl)-2-fluorobenzonitrile], the Ki on human σ1 receptor and at human σ2/TMEM97 receptor was less than 100 nM in each case.

As to `CC1(C)CN(C(=O)N2CCC3(CCN(Cc4cc(F)ccc4F)CC3)C2)c2cccnc21` [Example 148, (8-(2,5-difluorobenzyl)-2,8-diazaspiro[4.5]decan-2-yl)(3,3-dimethyl-2,3-dihydro-1H-pyrrolo[3,2-b]pyridin-1-yl)methanone], the Ki on human σ1 receptor and on human σ2/TMEM97 receptor was less than 100 nM in each case.

Take `CC1(C)CN(C(=O)N2CCC3(CCN(Cc4ccc(F)cc4)CC3)C2)c2cccnc21` [Example 149, (3,3-dimethyl-2,3-dihydro-1H-pyrrolo[3,2-b]pyridin-1-yl)(8-(4-fluorobenzyl)-2,8-diazaspiro[4.5]decan-2-yl)methanone]: the inhibitory constant (Ki) at human σ1 receptor and at human σ2/TMEM97 receptor was less than 100 nM each time.

Regarding `CC1(C)CN(C(=O)N2CCC3(CCN(Cc4c(F)cccc4F)CC3)C2)c2cccnc21` [Example 150, (8-(2,6-difluorobenzyl)-2,8-diazaspiro[4.5]decan-2-yl)(3,3-dimethyl-2,3-dihydro-1H-pyrrolo[3,2-b]pyridin-1-yl)methanone], the Ki at human σ1 receptor was more than 1000 nM; on human σ2/TMEM97 receptor, 100 to 500 nM.

`CC1(C)CN(C(=O)N2CCC3(CCN(Cc4ccc(C#N)cc4)CC3)C2)c2cccnc21` [Example 151, 4-((2-(3,3-dimethyl-2,3-dihydro-1H-pyrrolo[3,2-b]pyridine-1-carbonyl)-2,8-diazaspiro[4.5]decan-8-yl)methyl)benzonitrile]: the Ki at human σ1 receptor and at human σ2/TMEM97 receptor was less than 100 nM throughout.
